Reference: patent US6737383B1, “Herbicidal oxadiazolidines” (priority 1999, dated 2004)

What was measured:
bedstraw = experiment: Test B pre/postemergence bedstraw; assay type: in vivo, Galium aparine
Method in brief: (§1)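 Herbicidal effect was estimated by eye on a ten-point control scale after plants spent twelve to sixteen days in a greenhouse following soil or foliar treatment. Foliar sprays targeted plants at one to four leaves; all doses were formulated in a non-phytotoxic solvent with surfactant.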

blackgrass = experiment: Test B pre/postemergence blackgrass; assay type: in vivo, Alopecurus myosuroides
Method in brief: as §1

surinam grass = experiment: Test B pre/postemergence surinam grass; assay type: in vivo, Brachiaria decumbens
Method in brief: as §1

cocklebur = experiment: Test B pre/postemergence cocklebur; assay type: in vivo, Xanthium strumarium
Method in brief: as §1

corn = experiment: Test B pre/postemergence corn; assay type: in vivo, Zea mays
Method in brief: as §1

crabgrass = experiment: Test B pre/postemergence crabgrass; assay type: in vivo, Digitaria sanguinalis
Method in brief: as §1

giant foxtail = experiment: Test B pre/postemergence giant foxtail; assay type: in vivo, Setaria faberii
Method in brief: as §1

rape = experiment: Test B pre/postemergence rape; assay type: in vivo, Brassica napus
Method in brief: as §1

soybean = experiment: Test B pre/postemergence soybean; assay type: in vivo, Glycine max
Method in brief: as §1

sugar beet = experiment: Test B pre/postemergence sugar beet; assay type: in vivo, Beta vulgaris
Method in brief: as §1

velvetleaf = experiment: Test B pre/postemergence velvetleaf; assay type: in vivo, Abutilon theophrasti
Method in brief: as §1

wheat = experiment: Test B pre/postemergence wheat; assay type: in vivo, Triticum aestivum
Method in brief: as §1

purple nutsedge = experiment: Test B pre/postemergence purple nutsedge; assay type: in vivo, Cyperus rotundus
Method in brief: as §1

rice = experiment: Test B flood test rice; assay type: in vivo, Oryza sativa
Method in brief: (§2)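 Plants were grown to the 2-leaf stage before treatment with test chemical, then held in a greenhouse for twelve to sixteen days. Injury was visually rated against untreated controls on a 0–10 scale, where 0 is no effect and 10 is complete control.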

smallflower flatsedge = experiment: Test B flood test smallflower flatsedge; assay type: in vivo, Cyperus difformis
Method in brief: as §2

duck salad = experiment: Test B flood test duck salad; assay type: in vivo, Heteranthera limosa
Method in brief: as §2

bamyardgrass = experiment: Test B flood test barnyardgrass; assay type: in vivo, Echinochloa crus-galli
Method in brief: as §2

[1] = Preemergence, Rate 62 g/ha, scale of 0 to 10 where 0 is no effect and 10 is complete control
[2] = Preemergence, Rate 250 g/ha, scale of 0 to 10 where 0 is no effect and 10 is complete control
[3] = Preemergence, Rate 500 g/ha, scale of 0 to 10 where 0 is no effect and 10 is complete control
[4] = Rate 62 g/ha, Postemergence, scale of 0 to 10 where 0 is no effect and 10 is complete control
[5] = Rate 125 g/ha, Postemergence, scale 0 to 10
[6] = Rate 125 g/ha, Preemergence, scale of 0 to 10 where 0 is no effect and 10 is complete control
[7] = Rate 500 g/ha, Postemergence, scale 0 to 10, 0 no effect, 10 complete control
[8] = Rate 62 g/ha, headed Pre-emergence (flood test species), scale 0 to 10 (0 no effect, 10 complete control)
[9] = Rate 125 g/ha, Pre-emergence, flood test species, scale 0 to 10 where 0 is no effect and 10 is complete control
[10] = Rate 250 g/ha, Pre-emergence, flood-test species, scale 0 to 10, 0 is no effect, 10 is complete control
[11] = Rate 500 g/ha, Pre-emergence, flood test species, scale 0 to 10 (0 no effect, 10 complete control)

CC(C)N(C(=O)n1oc(=O)n([C@H](C)c2ccccc2)c1=O)c1ccc(F)cc1F [Compound 238]
Bedstraw plant response rating (bedstraw; [1]): 0
Bedstraw plant response rating (bedstraw; [2]): 0
Plant response rating, Bedstraw (bedstraw; [3]): 3
Bedstraw plant response rating (bedstraw; [4]): 0
Bedstraw plant response rating (bedstraw; [5]): 2
Bedstraw plant response rating (bedstraw; [6]): 0
Plant response rating (0 to 10; 0 is no effect, 10 is complete control), Bedstraw (bedstraw; Rate 250 g/ha, Postemergence): 8
Bedstraw plant response rating (bedstraw; [7]): 8
Blackgrass plant response rating (blackgrass; [1]): 0
Blackgrass plant response rating (blackgrass; [2]): 0
Plant response rating, Blackgrass (blackgrass; [3]): 0
Blackgrass plant response rating (blackgrass; [4]): 0
Blackgrass plant response rating (blackgrass; [5]): 0
Blackgrass plant response rating (blackgrass; [6]): 0
Plant response rating (0 to 10; 0 is no effect, 10 is complete control), Blackgrass (blackgrass; Rate 250 g/ha, Postemergence): 0
Blackgrass plant response rating (blackgrass; [7]): 5
B. signalgrass plant response rating (surinam grass; [1]): 0
B. signalgrass plant response rating (surinam grass; Preemergence, Rate 250 g/ha, scale 0 to 10, 0 is no effect, 10 is complete control): 0
Plant response rating, B. signalgrass (surinam grass; [3]): 0
B. signalgrass plant response rating (surinam grass; [4]): 0
B. signalgrass plant response rating (surinam grass; Rate 125 g/ha, Postemergence, scale 0 (no effect) to 10 (complete control)): 0
B. signalgrass plant response rating (surinam grass; [6]): 0
Plant response rating (0 to 10; 0 is no effect, 10 is complete control), B. signalgrass (surinam grass; Rate 250 g/ha, Postemergence): 0
B. signalgrass plant response rating (surinam grass; [7]): 0
Cocklebur plant response rating (cocklebur; [1]): 0
Cocklebur plant response rating (cocklebur; [2]): 0
Cocklebur plant response rating (cocklebur; [4]): 0
Cocklebur plant response rating (cocklebur; [5]): 0
Cocklebur plant response rating (cocklebur; [6]): 0
Plant response rating (0 to 10; 0 is no effect, 10 is complete control), Cocklebur (cocklebur; Rate 250 g/ha, Postemergence): 0
Cocklebur plant response rating (cocklebur; [7]): 0
Corn plant response rating (corn; [1]): 0
Corn plant response rating (corn; [2]): 0
Plant response rating, Corn (corn; [3]): 0
Corn plant response rating (corn; [4]): 0
Corn plant response rating (corn; [5]): 0
Corn plant response rating (corn; [6]): 0
Plant response rating (0 to 10; 0 is no effect, 10 is complete control), Corn (corn; Rate 250 g/ha, Postemergence): 0
Corn plant response rating (corn; [7]): 0
Crabgrass plant response rating (crabgrass; [1]): 2
Crabgrass plant response rating (crabgrass; [2]): 10
Plant response rating, Crabgrass (crabgrass; [3]): 10
Crabgrass plant response rating (crabgrass; [4]): 0
Crabgrass plant response rating (crabgrass; [6]): 6
Plant response rating (0 to 10; 0 is no effect, 10 is complete control), Crabgrass (crabgrass; Rate 250 g/ha, Postemergence): 2
Crabgrass plant response rating (crabgrass; [7]): 5
Giant foxtail plant response rating (giant foxtail; [1]): 5
Giant foxtail plant response rating (giant foxtail; [2]): 10
Plant response rating, Giant foxtail (giant foxtail; [3]): 10
Giant foxtail plant response rating (giant foxtail; [4]): 0
Giant foxtail plant response rating (giant foxtail; [6]): 6
Plant response rating (0 to 10; 0 is no effect, 10 is complete control), Giant foxtail (giant foxtail; Rate 250 g/ha, Postemergence): 0
Giant foxtail plant response rating (giant foxtail; [7]): 2
Rape plant response rating (rape; [1]): 0
Rape plant response rating (rape; [2]): 0
Plant response rating, Rape (rape; [3]): 10
Rape plant response rating (rape; [4]): 0
Rape plant response rating (rape; [6]): 0
Plant response rating (0 to 10; 0 is no effect, 10 is complete control), Rape (rape; Rate 250 g/ha, Postemergence): 4
Rape plant response rating (rape; [7]): 6
Soybean plant response rating (soybean; [1]): 0
Soybean plant response rating (soybean; [2]): 0
Plant response rating, Soybean (soybean; [3]): 0
Soybean plant response rating (soybean; [4]): 1
Soybean plant response rating (soybean; [6]): 0
Soybean plant response rating (soybean; [7]): 2
Sugarbeets plant response rating (sugar beet; [1]): 0
Sugarbeets plant response rating (sugar beet; [2]): 3
Plant response rating, Sugarbeets (sugar beet; [3]): 6
Sugarbeets plant response rating (sugar beet; [4]): 0
Sugarbeets plant response rating (sugar beet; [6]): 0
Sugarbeets plant response rating (sugar beet; [7]): 0
Velvetleaf plant response rating (velvetleaf; [1]): 0
Velvetleaf plant response rating (velvetleaf; [2]): 0
Plant response rating, Velvetleaf (velvetleaf; [3]): 3
Velvetleaf plant response rating (velvetleaf; [4]): 1
Velvetleaf plant response rating (velvetleaf; [6]): 0
Velvetleaf plant response rating (velvetleaf; [7]): 2
Wheat plant response rating (wheat; [1]): 0
Wheat plant response rating (wheat; [2]): 0
Plant response rating, Wheat (wheat; [3]): 2
Wheat plant response rating (wheat; [4]): 0
Wheat plant response rating (wheat; [6]): 0
Wheat plant response rating (wheat; [7]): 0
Nutsedge plant response rating (purple nutsedge; [1]): 0
Nutsedge plant response rating (purple nutsedge; [2]): 0
Nutsedge plant response rating (purple nutsedge; [4]): 0
Nutsedge plant response rating (purple nutsedge; [6]): 0
Plant response rating (0 to 10; 0 is no effect, 10 is complete control), Nutsedge (purple nutsedge; Rate 250 g/ha, Postemergence): 0
Nutsedge plant response rating (purple nutsedge; [7]): 0
Rice plant response rating (rice; [8]): 0
Rice plant response rating (rice; [9]): 0
Rice plant response rating (rice; [10]): 0
Rice plant response rating (rice; [11]): 0
S. Flatsedge plant response rating (smallflower flatsedge; [8]): 0
S. Flatsedge plant response rating (smallflower flatsedge; [9]): 0
S. Flatsedge plant response rating (smallflower flatsedge; [10]): 0
S. Flatsedge plant response rating (smallflower flatsedge; [11]): 0
Ducksalad plant response rating (duck salad; [8]): 0
Ducksalad plant response rating (duck salad; [9]): 0
Ducksalad plant response rating (duck salad; [10]): 0
Ducksalad plant response rating (duck salad; [11]): 0
Barnyardgrass plant response rating (bamyardgrass; [8]): 0
Barnyardgrass plant response rating (bamyardgrass; [9]): 0
Barnyardgrass plant response rating (bamyardgrass; [10]): 0
Barnyardgrass plant response rating (bamyardgrass; [11]): 0
